# pIC50: −log10 of the molar value.
# How the values were obtained:
# [1] = molecular target: T1, Vascular endothelial growth factor receptor 2 (Homo sapiens, UniProt P35968); experiment: Inhibition of KDR in presence of 1 mM ATP
# [2] = molecular target: Vascular endothelial growth factor receptor 2 (Mus musculus, UniProt P35918); experiment: Inhibition of VEGF-induced KDR phosphorylation in mouse 3T3 cells; type: cell-based, NIH3T3
# [3] = molecular target: T2, Receptor-type tyrosine-protein kinase FLT3 (Homo sapiens, UniProt P36888); experiment: Inhibition of Flt3
# T2 sequence (P36888 whole entry): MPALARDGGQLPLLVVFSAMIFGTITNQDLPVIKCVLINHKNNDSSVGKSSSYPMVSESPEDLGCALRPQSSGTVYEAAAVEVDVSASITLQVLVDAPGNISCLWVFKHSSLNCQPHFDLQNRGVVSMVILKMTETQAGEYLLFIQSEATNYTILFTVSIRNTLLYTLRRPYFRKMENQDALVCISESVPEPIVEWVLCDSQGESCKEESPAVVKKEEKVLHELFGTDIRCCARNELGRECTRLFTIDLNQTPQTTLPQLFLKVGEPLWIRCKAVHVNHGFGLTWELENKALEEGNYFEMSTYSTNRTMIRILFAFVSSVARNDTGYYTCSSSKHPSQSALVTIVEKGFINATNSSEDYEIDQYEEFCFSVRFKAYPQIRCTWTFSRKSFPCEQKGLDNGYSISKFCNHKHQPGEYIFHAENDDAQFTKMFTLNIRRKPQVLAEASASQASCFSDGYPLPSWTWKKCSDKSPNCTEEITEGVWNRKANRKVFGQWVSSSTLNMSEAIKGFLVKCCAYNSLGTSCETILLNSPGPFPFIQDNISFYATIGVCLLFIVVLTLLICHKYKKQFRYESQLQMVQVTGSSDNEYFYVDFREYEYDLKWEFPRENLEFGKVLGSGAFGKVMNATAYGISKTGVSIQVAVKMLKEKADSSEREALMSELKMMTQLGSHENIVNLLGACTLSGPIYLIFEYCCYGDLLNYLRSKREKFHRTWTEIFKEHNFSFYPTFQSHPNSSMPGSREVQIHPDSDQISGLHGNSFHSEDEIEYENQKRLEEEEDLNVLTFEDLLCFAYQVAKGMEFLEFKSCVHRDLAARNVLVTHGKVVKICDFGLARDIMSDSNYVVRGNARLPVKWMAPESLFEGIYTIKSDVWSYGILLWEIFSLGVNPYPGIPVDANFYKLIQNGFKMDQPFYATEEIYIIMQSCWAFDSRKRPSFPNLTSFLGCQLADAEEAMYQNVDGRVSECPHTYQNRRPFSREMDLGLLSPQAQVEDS
# [4] = molecular target: Mast/stem cell growth factor receptor Kit (Homo sapiens, UniProt P10721); experiment: Inhibition of cKit
# [5] = molecular target: T1, Vascular endothelial growth factor receptor 2; experiment: Inhibition of KDR in presence of 10 uM ATP
# [6] = molecular target: Serine/threonine-protein kinase PLK1 (Homo sapiens, UniProt P53350); experiment: Inhibition of Plk1
# [7] = molecular target: Serine/threonine-protein kinase PAK 4 (Homo sapiens, UniProt O96013); experiment: Inhibition of Pak4
# [8] = Inhibition of CK2 at 100 uM
# [9] = molecular target: RAC-alpha serine/threonine-protein kinase (Homo sapiens, UniProt P31749); experiment: Inhibition of Akt1
# [10] = Inhibition of CK2
# Chain of Vascular endothelial growth factor receptor 2 (Mus musculus, UniProt P35918) (P35918 whole entry): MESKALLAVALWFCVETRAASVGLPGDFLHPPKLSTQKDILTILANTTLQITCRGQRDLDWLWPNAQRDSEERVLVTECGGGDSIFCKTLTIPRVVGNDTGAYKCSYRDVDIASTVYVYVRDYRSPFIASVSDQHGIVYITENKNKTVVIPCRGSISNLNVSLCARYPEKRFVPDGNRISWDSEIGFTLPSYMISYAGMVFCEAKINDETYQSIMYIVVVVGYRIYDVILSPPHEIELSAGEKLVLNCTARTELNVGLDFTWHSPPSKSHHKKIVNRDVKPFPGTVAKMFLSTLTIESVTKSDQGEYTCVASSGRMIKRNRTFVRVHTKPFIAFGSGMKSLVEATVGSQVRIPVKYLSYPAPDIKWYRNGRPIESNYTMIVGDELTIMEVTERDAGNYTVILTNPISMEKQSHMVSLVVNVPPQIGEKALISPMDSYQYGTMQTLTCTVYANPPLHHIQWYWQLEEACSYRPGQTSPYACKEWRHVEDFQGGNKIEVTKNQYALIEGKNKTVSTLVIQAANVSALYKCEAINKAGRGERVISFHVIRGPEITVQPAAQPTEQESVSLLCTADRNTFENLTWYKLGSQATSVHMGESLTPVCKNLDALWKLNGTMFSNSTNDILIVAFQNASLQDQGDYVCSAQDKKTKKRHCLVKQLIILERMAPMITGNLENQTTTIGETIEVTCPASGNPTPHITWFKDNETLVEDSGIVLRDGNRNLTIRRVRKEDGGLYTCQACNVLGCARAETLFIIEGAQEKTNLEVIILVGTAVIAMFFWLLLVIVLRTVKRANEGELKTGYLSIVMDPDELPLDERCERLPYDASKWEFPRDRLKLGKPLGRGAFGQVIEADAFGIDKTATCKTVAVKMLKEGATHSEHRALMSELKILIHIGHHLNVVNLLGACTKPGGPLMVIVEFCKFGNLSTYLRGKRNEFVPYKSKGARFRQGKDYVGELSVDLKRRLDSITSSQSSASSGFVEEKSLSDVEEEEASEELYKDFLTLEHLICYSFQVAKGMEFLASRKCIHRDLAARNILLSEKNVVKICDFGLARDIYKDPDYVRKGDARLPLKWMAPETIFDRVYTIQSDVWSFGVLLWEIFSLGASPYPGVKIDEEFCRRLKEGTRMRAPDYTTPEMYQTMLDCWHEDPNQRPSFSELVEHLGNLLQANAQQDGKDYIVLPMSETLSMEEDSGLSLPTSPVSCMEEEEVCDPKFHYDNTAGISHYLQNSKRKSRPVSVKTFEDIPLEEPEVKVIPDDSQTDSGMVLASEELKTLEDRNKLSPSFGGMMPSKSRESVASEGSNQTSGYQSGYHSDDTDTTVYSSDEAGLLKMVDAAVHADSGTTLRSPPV
# T1 sequence (P35968 whole entry): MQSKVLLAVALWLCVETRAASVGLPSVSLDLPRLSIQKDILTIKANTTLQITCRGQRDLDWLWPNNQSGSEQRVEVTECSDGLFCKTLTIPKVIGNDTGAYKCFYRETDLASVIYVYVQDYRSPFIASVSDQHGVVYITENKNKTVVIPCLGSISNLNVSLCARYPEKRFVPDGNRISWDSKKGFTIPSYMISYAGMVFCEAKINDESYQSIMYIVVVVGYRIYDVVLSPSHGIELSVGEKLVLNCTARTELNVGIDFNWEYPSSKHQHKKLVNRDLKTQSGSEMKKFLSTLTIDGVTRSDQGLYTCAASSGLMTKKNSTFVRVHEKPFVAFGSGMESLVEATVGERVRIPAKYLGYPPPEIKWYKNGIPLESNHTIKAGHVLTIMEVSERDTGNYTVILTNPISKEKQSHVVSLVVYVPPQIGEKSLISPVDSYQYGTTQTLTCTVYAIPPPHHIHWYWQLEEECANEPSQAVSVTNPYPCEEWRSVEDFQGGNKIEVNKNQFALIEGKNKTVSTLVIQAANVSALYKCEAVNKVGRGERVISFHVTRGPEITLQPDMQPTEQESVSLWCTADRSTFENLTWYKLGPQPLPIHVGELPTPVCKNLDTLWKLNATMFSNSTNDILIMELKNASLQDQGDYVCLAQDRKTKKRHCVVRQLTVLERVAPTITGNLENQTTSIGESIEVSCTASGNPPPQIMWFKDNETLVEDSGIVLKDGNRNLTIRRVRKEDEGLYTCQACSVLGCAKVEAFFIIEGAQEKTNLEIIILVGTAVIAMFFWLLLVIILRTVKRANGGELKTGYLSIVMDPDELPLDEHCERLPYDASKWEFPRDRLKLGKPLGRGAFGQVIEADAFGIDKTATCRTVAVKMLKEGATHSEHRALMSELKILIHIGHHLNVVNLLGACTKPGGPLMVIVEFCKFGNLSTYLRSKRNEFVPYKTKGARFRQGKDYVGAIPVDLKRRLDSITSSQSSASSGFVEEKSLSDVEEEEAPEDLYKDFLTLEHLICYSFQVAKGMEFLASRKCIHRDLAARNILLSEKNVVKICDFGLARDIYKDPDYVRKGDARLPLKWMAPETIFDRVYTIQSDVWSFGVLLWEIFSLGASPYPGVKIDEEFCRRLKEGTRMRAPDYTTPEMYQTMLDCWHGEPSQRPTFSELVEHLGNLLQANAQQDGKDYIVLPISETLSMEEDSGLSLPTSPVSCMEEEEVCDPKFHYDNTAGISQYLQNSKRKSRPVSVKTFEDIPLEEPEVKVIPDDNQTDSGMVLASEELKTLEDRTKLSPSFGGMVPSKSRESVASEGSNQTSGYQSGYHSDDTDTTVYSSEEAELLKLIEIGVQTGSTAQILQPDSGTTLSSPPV
# Chain of Mast/stem cell growth factor receptor Kit (P10721 whole entry): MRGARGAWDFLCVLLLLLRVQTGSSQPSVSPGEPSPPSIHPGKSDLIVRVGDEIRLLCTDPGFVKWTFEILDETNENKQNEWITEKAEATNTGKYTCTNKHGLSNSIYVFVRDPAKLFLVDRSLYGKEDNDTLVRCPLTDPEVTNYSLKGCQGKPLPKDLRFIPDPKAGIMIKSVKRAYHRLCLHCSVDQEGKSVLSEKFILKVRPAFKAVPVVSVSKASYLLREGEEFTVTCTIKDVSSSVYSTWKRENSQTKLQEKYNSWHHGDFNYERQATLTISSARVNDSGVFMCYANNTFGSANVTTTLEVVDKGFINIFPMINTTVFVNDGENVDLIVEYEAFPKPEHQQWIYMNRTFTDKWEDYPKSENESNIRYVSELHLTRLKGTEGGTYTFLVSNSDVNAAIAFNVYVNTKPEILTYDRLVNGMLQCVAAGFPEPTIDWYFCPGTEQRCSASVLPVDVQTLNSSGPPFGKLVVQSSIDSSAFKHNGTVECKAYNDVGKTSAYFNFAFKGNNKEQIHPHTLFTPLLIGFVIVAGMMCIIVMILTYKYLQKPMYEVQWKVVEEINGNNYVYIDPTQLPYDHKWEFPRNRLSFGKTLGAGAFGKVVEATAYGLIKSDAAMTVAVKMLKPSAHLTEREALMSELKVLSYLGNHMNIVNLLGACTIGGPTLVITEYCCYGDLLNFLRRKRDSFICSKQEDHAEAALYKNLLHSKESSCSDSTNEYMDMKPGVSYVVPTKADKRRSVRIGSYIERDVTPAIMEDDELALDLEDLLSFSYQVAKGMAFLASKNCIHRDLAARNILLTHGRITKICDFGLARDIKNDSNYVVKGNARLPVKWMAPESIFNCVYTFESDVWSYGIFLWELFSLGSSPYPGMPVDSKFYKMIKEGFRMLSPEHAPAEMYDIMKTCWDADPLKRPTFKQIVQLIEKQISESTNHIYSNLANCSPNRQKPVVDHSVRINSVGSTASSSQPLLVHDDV
# Chain of Serine/threonine-protein kinase PAK 4 (O96013 whole entry): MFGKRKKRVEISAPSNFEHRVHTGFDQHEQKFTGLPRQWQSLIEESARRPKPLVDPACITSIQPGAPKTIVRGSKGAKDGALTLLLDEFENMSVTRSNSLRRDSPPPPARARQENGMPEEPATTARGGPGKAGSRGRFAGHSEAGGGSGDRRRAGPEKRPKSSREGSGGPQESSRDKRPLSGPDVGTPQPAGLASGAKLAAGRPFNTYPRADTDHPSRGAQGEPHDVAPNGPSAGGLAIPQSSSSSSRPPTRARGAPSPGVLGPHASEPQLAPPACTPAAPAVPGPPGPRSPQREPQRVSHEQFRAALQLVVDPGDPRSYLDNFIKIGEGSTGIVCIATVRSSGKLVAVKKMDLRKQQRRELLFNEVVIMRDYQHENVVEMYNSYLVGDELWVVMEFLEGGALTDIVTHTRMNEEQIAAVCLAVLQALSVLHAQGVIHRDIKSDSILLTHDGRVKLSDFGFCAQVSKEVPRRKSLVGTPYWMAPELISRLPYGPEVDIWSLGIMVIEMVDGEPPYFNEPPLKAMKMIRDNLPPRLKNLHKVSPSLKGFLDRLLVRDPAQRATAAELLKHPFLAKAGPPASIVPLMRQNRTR
# Chain of RAC-alpha serine/threonine-protein kinase (P31749 whole entry): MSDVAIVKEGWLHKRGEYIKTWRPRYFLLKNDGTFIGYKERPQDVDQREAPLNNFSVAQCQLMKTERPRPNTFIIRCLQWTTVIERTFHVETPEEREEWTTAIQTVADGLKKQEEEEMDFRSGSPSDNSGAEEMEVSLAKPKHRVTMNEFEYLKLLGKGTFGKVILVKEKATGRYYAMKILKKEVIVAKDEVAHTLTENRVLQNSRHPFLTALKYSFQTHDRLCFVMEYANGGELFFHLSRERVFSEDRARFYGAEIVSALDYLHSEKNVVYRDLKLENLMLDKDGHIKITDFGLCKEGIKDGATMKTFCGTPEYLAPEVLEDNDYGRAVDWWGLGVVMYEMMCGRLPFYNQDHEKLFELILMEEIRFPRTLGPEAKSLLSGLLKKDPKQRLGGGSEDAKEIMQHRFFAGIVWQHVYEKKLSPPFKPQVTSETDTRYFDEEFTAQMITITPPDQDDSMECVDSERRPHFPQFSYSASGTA
Structure (SMILES),pIC50 [1],pIC50 [2],pIC50 [3],pIC50 [4],pIC50 [5],pIC50 [6],pIC50 [7],inhibition [8],pIC50 [9],pIC50 [10]
Nc1ncnc2c1N=C(c1ccc(NC(=O)Nc3ccccc3)cc1)CCN2,6.02,,,,,,,,,
Nc1nc(N)c2c(n1)NCCC(c1ccc(NC(=O)Nc3ccccc3)cc1)=N2,5.54,,5.54,< 4.89,,,,,,
Nc1ncnc2c1N=C(c1cccc(Cl)c1)CCN2,,,,,6.22,< 4.00,< 4.00,64%,< 4.00,
Nc1nc(N)c2c(n1)NCCC(c1ccc(Cl)cc1)=N2,,,,,5.05,< 4.00,< 4.00,,< 4.00,< 4.00
Cc1ccc(C2=Nc3c(N)ncnc3NCC2)cc1,,,,,5.40,< 4.00,< 4.00,,< 4.00,< 4.00
Nc1ncnc2c1N=C(c1cccc(NC(=O)Nc3ccccc3)c1)CCN2,6.05,,5.57,5.52,,,,,,
Nc1ncnc2c1N=C(c1ccc(Cl)cc1)CCN2,,,,,5.52,< 4.00,< 4.00,,< 4.00,< 4.00
Cc1cccc(C2=Nc3c(N)ncnc3NCC2)c1,,,,,5.52,4.30,< 4.00,,< 4.00,4.92
Nc1nc(N)c2c(n1)NCCC(c1ccccc1)=N2,,,,,4.46,< 4.00,< 4.00,,< 4.00,< 4.00
Nc1ncnc2c1N=C(c1ccc(NC(=O)Nc3cccc(Cl)c3)cc1)CCN2,7.72,7.30,8.22,7.74,,,,,,
Nc1nc(N)c2c(n1)NCCC(c1cccc(Cl)c1)=N2,,,,,4.68,< 4.00,< 4.00,,< 4.00,
Nc1ncnc2c1N=C(c1ccccc1)CCN2,,,,,5.52,< 4.00,< 4.00,,4.04,5.40

# Second part, the compound after the results:
pIC50 [1],pIC50 [2],pIC50 [3],pIC50 [4],pIC50 [5],pIC50 [6],pIC50 [7],inhibition [8],pIC50 [9],pIC50 [10],Structure (SMILES)
8.22,7.31,7.80,7.30,,,,,,,Nc1ncnc2c1N=C(c1ccc(NC(=O)Nc3ccc(Cl)c(C(F)(F)F)c3)cc1)CCN2
6.96,5.61,8.05,7.46,,,,,,,Nc1ncnc2c1N=C(c1ccc(NC(=O)Nc3ccc(C(F)(F)F)cc3)cc1)CCN2
8.52,7.89,8.70,,,,,,,,Nc1ncnc2c1N=C(c1ccc(NC(=O)Nc3cccc(C(F)(F)F)c3)cc1)CCN2
,6.10,,7.04,,,,,,,Nc1ncnc2c1N=C(c1cccc(NC(=O)Nc3cccc(C(F)(F)F)c3)c1)CCN2
7.19,6.51,7.89,7.43,,,,,,,Cc1ccc(F)c(NC(=O)Nc2ccc(C3=Nc4c(N)ncnc4NCC3)cc2)c1
,7.28,,7.92,,,,,,,Cc1ccc(C2=Nc3c(N)ncnc3NCC2)cc1NC(=O)Nc1cccc(C(F)(F)F)c1
7.31,5.82,8.52,7.55,,,,,,,Nc1ncnc2c1N=C(c1ccc(NC(=O)Nc3cccc(C(F)(F)F)c3F)cc1)CCN2
8.30,6.46,8.15,7.66,,,,,,,Nc1ncnc2c1N=C(c1ccc(NC(=O)Nc3ccc(F)c(C(F)(F)F)c3)cc1)CCN2
8.40,6.92,,,,,,,,,Nc1ncnc2c1N=C(c1ccc(NC(=O)Nc3cc(C(F)(F)F)ccc3F)cc1)CCN2

# Reference: ChEMBL document CHEMBL1144750, “Scaffold oriented synthesis. Part 2: Design, synthesis and biological evaluation of pyrimido-diazepines as receptor tyrosine kinase inhibitors” (Bioorg Med Chem Lett, 2008)
